Eight compounds from patent US9532988B2, “Pharmaceutical composition comprising a TRPA1 antagonist and an analgesic agent” (GLENMARK PHARMACEUTICALS S.A., priority 2013, dated 2017) can be followed below.

Series [1] deals with Monosodium Iodo Acetate (MIA)-osteoarthritis induced weight bearing deficit in male SD rats. The series is described as follows: MIA-osteoarthritis induced weight bearing deficit (incapacitance meter). The class given is in vivo, rat (Sprague-Dawley). The settings on record: Compound I 1 mg/kg p.o. alone; 0.5-4 h post-dose; Example 3, Table 5, FIG. 5. On the procedure: After recording basal weight borne by both hind limbs (naïve) using the incapacitance meter (IITC Inc), rats were briefly anaesthetized with 2% isoflurane and O2 mixture and given intraarticular (i.a.) injection of MIA (5 mg per rat in […]) through the intrapatellar ligament of the left knee (Combe et al., 2004). MIA was dissolved in 0.9% sterile saline and administered using a 26½ gauge needle. Contralateral knees were injected intra-articularly with 50 μl of 0.9% sterile saline. Weight bearing deficit in ipsilateral paw was assessed 20 h post MIA injection by measuring weight borne by both hind limbs.
On the day of the experiment (20 h after MIA injection), rats were evaluated for pre-dose weight bearing deficit to assess the effect of MIA. After regrouping the rats after randomization, the pre- & post-dose weight bearing deficit, was assessed for both hind limbs. Rats were orally dosed with vehicle, naproxen, compound I potassium salt and combination (Naproxen+Compound I—simultaneously). The effect of compound I, naproxen and their combination, in MIA-osteoarthritis induced weight bearing deficit in male SD rats, was evaluated using Incapacitance meter (IITC Inc.) fitted with a perspex chamber designed so that each hind paw rat rests on separate transducer pads to record animal's weight on each paw. […] The % reversal of weight bearing deficit was calculated as per standard procedure. […]

The test system of series [2] is Streptozotocin (STZ)-induced diabetic peripheral neuropathic hyperalgesia in male SD rats. The series is described as follows: Streptozotocin-induced diabetic peripheral neuropathic hyperalgesia. The class given is in vivo, rat (Sprague-Dawley). On the procedure:
Streptozotocin (STZ)-induced neuropathic hyperalgesia in rats is a model to screen potential therapeutics for diabetic painful neuropathy in human patients. Streptozotocin was dissolved in freshly prepared cold citrate buffer (0.1 M, pH—4.4). Diabetes was induced in overnight fasted male SD rats (weighing 250-300 g) by a single intraperitoneal injection of Streptozotocin (Sigma, 55 mg/kg, i.p). […] On the day of the experiment (13th day after STZ injection) rats were assessed for mechanical hyperalgesia using Randall-Sellito paw pressure analgesymeter. Animals were weighed and grouped as described in Table 9.
Rats were orally dosed with vehicle, duloxetine hydrochloride, Compound I potassium salt and combination (Duloxetine+Compound I).
Streptozotocin (STZ)-induced neuropathic hyperalgesia in rats is a model to screen potential therapeutics for diabetic painful neuropathy in human patients. Streptozotocin was dissolved in freshly prepared cold citrate buffer (0.1 M, pH —4.4). Diabetes was induced in overnight fasted male Sprague Dawley rats by a single intraperitoneal injection of Streptozotocin (Sigma, 55 mg/kg, i.p). […] On the day of the experiment (13th day after STZ injection) rats were assessed for mechanical hyperalgesia using Randall-Sellito paw pressure analgesymeter.
Rats were orally dosed with vehicle, different doses of duloxetine hydrochloride, Compound II disodium salt and combinations (duloxetine+Compound II—simultaneously). The post-dose paw withdrawal thresholds were measured at 1, 2 & 4 h after oral administration. […] Animals were weighed and grouped as described in Table 16.
Rats were orally dosed with vehicle, different doses of duloxetine hydrochloride, Compound III disodium salt and combinations (duloxetine+Compound III—simultaneously). […] Animals were weighed and grouped as described in Table 21.

In series [3] the test system is CCI-induced neuropathic hyperalgesia in male SD rats. The series is described as follows: Chronic constriction injury (CCI)-induced mechanical hyperalgesia. The series is classed as in vivo, rat (Sprague-Dawley). The settings on record: 0.5-4 h post-dose, Example 8, Table 11, FIG. 12. On the procedure:
The objective of this experiment was to study the combinational effect of Compound I and pregabalin in CCI-induced neuropathic hyperalgesia in male SD rats. Male SD rats weighing 180-220 g were grouped according to Table 11. Rats were anesthetized using ketamine/xylazine (40/5 mg/kg, i.p.) and the left sciatic nerve was exposed at mid-thigh level through a small incision. Four loose ligatures of 4-0 chromic cat gut at 1 mm space were placed around the sciatic nerve after the bifurcation of common sciatic nerve. After 6-7 days, mechanical hyperalgesia was assessed by measuring hind paw withdrawal thresholds to an increasing pressure (g) stimulus, using the Randall-Sellitto analgesymeter (Ugo Basile, Italy), fitted with a wedge-shaped probe.
Rats were orally dosed with vehicle, pregabalin, Compound I potassium salt and combination (Pregabalin+Compound I).

In series [4] the test system is Freund's Complete Adjuvant (FCA)-induced inflammatory mechanical hyperalgesia in male SD rats. The series is described as follows: FCA-induced inflammatory mechanical hyperalgesia (Randall-Sellitto paw pressure).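 Also: left hind paw withdrawal threshold (g) to rising pressure on an analgesymeter, FCA injected intraplantar 24 h earlier, thresholds taken before and 0.5, 1, 2 and 4 h after oral dosing.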
Procedure: Materials: FCA containing 1 mg/ml of heat killed and dried Mycobacterium tuberculosis (H37RA strain) emulsified in mineral oil and mannide mono-oleate; Male SD rats weighing 170-220 g; Paw Pressure Analgesymeter (37215, Ugo Basile, Comerio, Italy); Compound I potassium; and Diclofenac sodium
Naïve withdrawal thresholds of the left hind paw to an increasing pressure (g) stimulus were measured in rats using the analgesymeter. FCA was injected (30 μl) into the plantar region of left paw of rats to induce the inflammatory hyperalgesia. Mechanical hyperalgesia (24 h after FCA injection) was assessed by measuring hind paw withdrawal thresholds.
The post-dose paw withdrawal thresholds were measured at 0.5, 1, 2 & 4 h after oral administration. The percentage (%) reversal of mechanical hyperalgesia was calculated as per standard procedure.
Naïve withdrawal thresholds of the left hind paw to an increasing pressure (g) stimulus were measured in rats using the analgesymeter. Freund's Complete Adjuvant (FCA) was injected (30 μl) into the plantar region of left paw of rats to induce the inflammatory hyperalgesia. Mechanical hyperalgesia (24 h after FCA injection) was assessed both pre- & post-dosing of drugs by measuring hind paw withdrawal thresholds. […] The post-dose paw withdrawal thresholds were measured at 0.5, 1, 2 & 4 h after oral administration. The % reversal of mechanical hyperalgesia was calculated.
Naïve withdrawal thresholds of the left hind paw to an increasing pressure (g) stimulus were measured in rats using the analgesymeter.
For series [5], the system named is Spinal nerve ligation (SNL) injury-induced neuropathic hyperalgesia in male SD rats. The series is described as follows: Spinal nerve ligation (SNL)-induced mechanical hyperalgesia. The series is classed as in vivo, rat (Sprague-Dawley). The settings on record: 0.5-4 h post-dose, Example 15, Table 18, FIG. 20.
Procedure: Spinal nerve ligation (SNL) injury in rats induces neuropathic mechanical hyperalgesia in this Chung's model. Rats were anesthetized using ketamine/xylazine (40/5 mg/kg, i.p.) and a 2-3 cm longitudinal incision was made in the lumbar spinal region, 5-6 mm lateral to the midline and above the lower lumbar vertebrae and the rostral sacrum, exposing the paraspinal muscles on the left side. The paraspinal muscles were isolated using blunt-tipped scissors for exposing L6 transverse process. The L6 transverse process was cut with the help of blunt-tipped scissor to visualize the left L5 spinal nerves. The nerves were cleaned from adhering tissue and were tightly ligated using 7.0 silk sutures (EP 1.5, Pearsalls Ltd) (Somerset, UK). The wound was closed with muscle & skin sutures and Povidone-iodine solution was applied every day till complete healing. […] Mechanical hyperalgesia was assessed by measuring hind paw withdrawal to an increasing pressure (g) stimulus, using an analgesymeter (Ugo Basile, Italy) fitted with a wedge-shaped probe.
Mechanical hyperalgesia was assessed both pre- & post-dosing of drugs by measuring hind paw withdrawal thresholds. […] The post-dose paw withdrawal thresholds were measured at 0.5, 1, 2 & 4 h after oral administration. The % reversal of mechanical hyperalgesia was calculated as per standard procedure.
The test system of series [6] is motor coordination in rotarod test in male SD rats. The series is described as follows: Motor coordination in rotarod test. The class given is in vivo, rat (Sprague-Dawley). On the procedure:
FIG. 9 is a bar graph that represents effect of Compound I (3 mg/kg), thiocolchicoside (0.01 mg/kg) and their combination on motor coordination in rotarod test in male SD rats.
FIG. 19 is a bar graph that represents effect of combination of thiocolchicoside (0.01 mg/kg) and Compound II (0.13 mg/kg) and their combination on motor coordination in rotarod test in male SD rats.
On the technique in general: The rotarod test checks motor coordination on a turning rod.

The subject of series [7] is FCA-induced thermal hyperalgesia in male SD rats. The series is described as follows: FCA-induced thermal hyperalgesia (Hargreaves apparatus). The series is classed as in vivo, rat (Sprague-Dawley). The note with it: diclofenac sodium 6 mg/kg p.o. alone; 0.5-4 h post-dose; Example 16, Table 19, FIG. 22. How it is done:
The % reversal of mechanical/thermal hyperalgesia was calculated.

Molecules are shown by their SMILES. Counter-ions that a name gives are not always drawn.

Turning to `Cn1c(=O)c2c(CC(=O)Nc3nc(-c4ccc(F)c(C(F)(F)F)c4F)cs3)csc2n(C)c1=O` [Compound I, N-{4-[2,4-difluoro-3-(trifluoromethyl)phenyl]-1,3-thiazol-2-yl}-2-(1,3-dimethyl-2,4-dioxo-1,2,3,4-tetrahydrothieno[2,3-d]pyrimidin-5-yl)acetamide], the “maximal % reversal of weight bearing deficit” value in series [1] came out at 8%. In addition, the “maximal % reversal of hyperalgesia” value in series [2] (Compound I 1 mg/kg p.o. alone, Example 7, Table 10, FIG. 11) amounted to 10%; in series [2] (Compound I 3 mg/kg p.o. alone, 0.5-4 h post-dose, Example 7, Table 9, FIG. 10), 26%; in series [3] (Compound I 3 mg/kg p.o. alone), 22%; in series [4] (Compound I 1 mg/kg p.o. alone, Example 1, Table 2, FIG. 2), 15%; in series [4] (Compound I 1 mg/kg p.o. alone, Example 2, Table 4, FIG. 4) it was 10%; in series [4] (Compound I 3 mg/kg p.o. alone, 0.5-4 h post-dose, Example 1, Table 1, FIG. 1), 21%. Further, the “maximal % reversal of hyperalgesia” value in series [4] (Compound I 3 mg/kg p.o. alone, Example 2, Table 3, FIG. 3) was determined as 25%; in series [4] (Compound I 3 mg/kg p.o. alone, Example 4, Table 6, FIG. 6) it was 21%; in series [4] (Compound I 3 mg/kg p.o. alone, Example 5, Table 7, FIG. 7), 25%; in series [4] (Compound I 3 mg/kg p.o. alone, Example 6, Table 8, FIG. 8), 17%.
On to `Cn1nc2c(c1CC(=O)N=c1scc(-c3ccc(F)c(C(F)(F)F)c3F)n1COP(=O)(O)O)c(=O)n(C)c(=O)n2C` [Compound II, 4-(2,4-difluoro-3-(trifluoromethyl)phenyl)-2-((2-(2,5,7-trimethyl-4,6-dioxo-4,5,6,7-tetrahydro-2H-pyrazolo[3,4-d]pyrimidin-3-yl)acetyl)imino)thiazol-3 (2H)-yl)methyl dihydrogen phosphate], for which the “maximal % reversal of hyperalgesia” value in series [2] (Compound II 0.04 mg/kg p.o. alone, 1, 2 & 4 h post-dose, Example 13, Table 16, FIG. 17) stood at 13%; in series [5] (Compound II 0.13 mg/kg p.o. alone) it was 18%; in series [4] (Compound II 0.13 mg/kg p.o. alone, Example 9, Table 12, FIG. 13), 21%; in series [4] (Compound II 0.13 mg/kg p.o. alone, Example 10, Table 13, FIG. 14), 22%; in series [4] (Compound II 0.13 mg/kg p.o. alone, Example 11, Table 14, FIG. 15), 14%; in series [4] (Compound II 0.13 mg/kg p.o. alone, Example 12, Table 15, FIG. 16), 22%. Also, the “maximal % reversal of hyperalgesia” value in series [4] (Compound II 0.13 mg/kg p.o. alone, Example 14, Table 17, FIG. 18) was determined as 14%. For the same compound, in series [6] (Compound II 0.13 mg/kg alone, n=8, Example 14, FIG. 19), the “motor deficits (rotarod)” value is “did not produce any motor deficits”.
In the case of `O=C(O)Cc1ccccc1Nc1c(Cl)cccc1Cl` [diclofenac sodium], the “maximal % reversal of thermal hyperalgesia” value in series [7] is 27%. The “maximal % reversal of hyperalgesia” value in series [4] (diclofenac sodium 6 mg/kg p.o. alone, 0.5-4 h post-dose, Example 1, Table 1, FIG. 1) was determined as 15%; in series [4] (diclofenac sodium 6 mg/kg p.o. alone, Example 9, Table 12, FIG. 13), 14%; in series [4] (diclofenac sodium 8 mg/kg p.o. alone, Example 1, Table 2, FIG. 2), 39%. In series [4] (diclofenac sodium 6 mg/kg p.o. alone, Example 16, Table 19, FIG. 21), the “maximal % reversal of mechanical hyperalgesia” value is on record as 23%.
On to `CNCC[C@H](Oc1cccc2ccccc12)c1cccs1` [duloxetine hydrochloride], for which the “maximal % reversal of hyperalgesia” value in series [2] (duloxetine hydrochloride 3 mg/kg p.o. alone, 0.5-4 h post-dose, Example 7, Table 9, FIG. 10) is 23%; in series [2] (duloxetine hydrochloride 3 mg/kg p.o. alone, 0.5-4 h post-dose, Example 18, Table 21, FIG. 24) it was 20%; in series [2] (duloxetine hydrochloride 3 mg/kg p.o. alone, 1, 2 & 4 h post-dose, Example 13, Table 16, FIG. 17), 17%; in series [2] (duloxetine hydrochloride 10 mg/kg p.o. alone, Example 7, Table 10, FIG. 11), 35%.
On to `Cc1cnc(NC(=O)C2=C(O)c3ccccc3S(=O)(=O)N2C)s1` [meloxicam], for which the “maximal % reversal of hyperalgesia” value in series [4] (meloxicam 0.5 mg/kg p.o. alone, Example 4, Table 6, FIG. 6) came out at 21%; in series [4] (meloxicam 0.5 mg/kg p.o. alone, Example 11, Table 14, FIG. 15), 19%.
Turning to `CC(=O)Nc1ccc(O)cc1` [paracetamol], the “maximal % reversal of hyperalgesia” value in series [4] (paracetamol 60 mg/kg p.o. alone, Example 5, Table 7, FIG. 7) was determined as 28%; in series [4] (paracetamol 60 mg/kg p.o. alone, Example 12, Table 15, FIG. 16) it was 17%.
On to `CC(C)C[C@H](CN)CC(=O)O` [pregabalin], for which the “maximal % reversal of hyperalgesia” value in series [3] (pregabalin 1 mg/kg p.o. alone) is on record as 14%; in series [5] (pregabalin 1 mg/kg p.o. alone) it was 20%.
`COc1c(O[C@@H]2O[C@H](CO)[C@@H](O)[C@H](O)[C@H]2O)cc2c(c1OC)-c1ccc(SC)c(=O)cc1[C@@H](NC(C)=O)CC2` [thiocolchicoside]: the “motor deficits (rotarod)” value in series [6] (thiocolchicoside 0.01 mg/kg alone, Example 6, FIG. 9) is on record as “did not produce any motor deficits”; in series [6] (thiocolchicoside 0.01 mg/kg alone, n=8, Example 14, FIG. 19), “did not produce any motor deficits”. Further, the “maximal % reversal of hyperalgesia” value in series [4] (thiocolchicoside 0.01 mg/kg p.o. alone, Example 6, Table 8, FIG. 8) was 15%; in series [4] (thiocolchicoside 0.01 mg/kg p.o. alone, Example 14, Table 17, FIG. 18) it was 14%.
